Experimental data taken from ChEMBL document CHEMBL5584214, “Design of MERS-CoV entry inhibitory short peptides based on helix-stabilizing strategies” (Bioorg Med Chem Lett, 2024).
≈ marks a conversion by molar mass, not a printed value. Calls of active or inactive are those of the source. The calls are words filed in the database; no cut-off is given here. Non-standard residues stand in square brackets, D forms with d. Residues, ends and D or L forms follow the SMILES beside them. *: point of attachment. PEG24 = NCCOCCOCCOCCOCCOCCOCCOCCOCCOCCOCCOCCOCCOCCOCCOCCOCCOCCOCCOCCOCCOCCOCCOCCOCCC(=O)O; Palmitoyl = CCCCCCCCCCCCCCCC(=O)*; AEEA = NCCOCCOCC(=O)O; Aib = CC(C)(N)C(=O)O

Key:
[1] = Clearance in Sprague-Dawley rat at 4 mg/kg, iv administered as single dose and measured upto 36 hrs by LC-MS/MS analysis; format: ADME, organism-based; conditions: in vivo
[2] = AUC (0 to t) in Sprague-Dawley rat at 4 mg/kg, iv administered as single dose and measured upto 36 hrs by LC-MS/MS analysis; format: ADME, organism-based; conditions: in vivo
[3] = MRT (0 to t) in Sprague-Dawley rat at 4 mg/kg, iv administered as single dose and measured upto 36 hrs by LC-MS/MS analysis; format: ADME, organism-based; conditions: in vivo
[4] = Half life in Sprague-Dawley rat at 4 mg/kg, iv administered as single dose and measured upto 36 hrs by LC-MS/MS analysis; format: ADME, organism-based; conditions: in vivo
[5] = Inhibition of MERS-CoV Spike glycoprotein mediated cell-cell fusion; parameters: species or system Middle East respiratory syndrome-related coronavirus
[6] = Cmax in Sprague-Dawley rat at 4 mg/kg, iv administered as single dose and measured upto 36 hrs by LC-MS/MS analysis; format: ADME, organism-based; conditions: in vivo
[7] = Volume of distribution in Sprague-Dawley rat at 4 mg/kg, iv administered as single dose and measured upto 36 hrs by LC-MS/MS analysis; format: ADME, organism-based; conditions: in vivo
[8] = system: Middle East respiratory syndrome-related coronavirus; experiment: Inhibition of MERS CoV spike glycoprotein HR1/HR2 fusion assessed as disruption of fusion-active core formation by measuring increase in HR2P density at 100 uM by native-PAGE analysis
[9] = Water solubility of compound in dd-H2O; format: physicochemical
[10] = Selectivity index, ratio of CC50 for human Huh-7 cells infected with MERS CoV pseudovirus to EC50 for MERS CoV pseudovirus infected in Huh-7 cells; format: toxicity, cell-based; conditions: read-out: Ratio CC50/EC50
[11] = Water solubility of compound in PBS at pH 7.4; format: physicochemical
[12] = system: Middle East respiratory syndrome-related coronavirus; experiment: Antiviral activity against MERS CoV pseudovirus infected in Huh-7 cells assessed as inhibition of viral infection; format: functional, organism-based
[13] = system: Middle East respiratory syndrome-related coronavirus; experiment: Inhibition of MERS CoV spike glycoprotein HR1/HR2 fusion assessed as disruption of fusion-active core formation by measuring reduction in six-helix bundle density at 100 uM by native-PAGE analysis
[14] = Cytotoxicity against human Huh-7 cells infected with MERS CoV pseudovirus assessed as reduction in cell viability; format: toxicity, cell-based

Row | Compound | clearance [1] [L/h/kg] | AUC(0-t) at 36 h [2] [µg·h/mL] | MRT last at 36 h [3] [h] | half-life [4] [h] | EC50 [5] [µM] | Cmax [6] [µg/mL] | Vd [7] [L/kg] | inhibition [8] | solubility [9] [µM] | selectivity ratio [10] | solubility [11] [µM] | EC50 [12] [µM] | inhibition [13] | CC50 [14] [µM]
1 | CC[C@H](C)[C@H](NC(=O)[C@H](Cc1ccc(O)cc1)NC(=O)[C@H](CO)NC(=O)[C@H](CCC(=O)O)NC(=O)[C@H](CCC(=O)O)NC(=O)[C@H](CC(C)C)NC(=O)[C@H](CCCCN)NC(=O)[C@H](CCCCN)NC(=O)[C@@H](NC(=O)[C@@H](NC(=O)[C@H](CCC(=O)O)NC(=O)[C@H](CCC(=O)O)NC(=O)[C@H](CC(C)C)NC(=O)[C@H](CCCCN)NC(=O)[C@H](CCCCN)NC(=O)[C@H](CCSC)NC(=O)[C@H](CCC(=O)O)NC(=O)[C@H](Cc1ccc(O)cc1)NC(=O)[C@H](CCC(=O)O)NC(=O)[C@H](CC(C)C)NC(=O)[C@H](CC(=O)O)NC(=O)[C@H](CC(C)C)NC(=O)[C@H](CC(C)C)NC(=O)[C@@H](NC(=O)[C@@H](NC(=O)[C@H](CC(N)=O)NC(=O)[C@@H](NC(=O)[C@H](CCC(N)=O)NC(=O)[C@@H](NC(=O)[C@H](CC(C)C)NC(=O)[C@@H](N)CO)[C@@H](C)O)[C@@H](C)CC)[C@@H](C)O)[C@@H](C)O)C(C)C)C(C)C)C(=O)N[C@@H](CC(=O)O)C(=O)N[C@@H](CC(C)C)C(=O)N[C@@H](CCCCN)C(=O)N[C@@H](CCC(=O)O)C(=O)N[C@@H](CC(C)C)C(=O)O | 0.615 | 6.45 | 0.28 | 0.35 | 0.75 | 30.4 | 0.307 |  |  |  |  |  |  | 
2 | CCCCCCCCCCCCCCCC(=O)NCCCC[C@H](NC(=O)COCCOCCNC(=O)[C@H](Cc1ccc(O)cc1)NC(=O)[C@H](CO)NC(=O)[C@H](CCC(=O)O)NC(=O)[C@H](CC(N)=O)NC(=O)[C@H](CC(C)C)NC(=O)[C@H](CCCCN)NC(=O)[C@H](CCCCN)NC(=O)[C@@H](NC(=O)[C@@H](NC(=O)[C@H](CCC(=O)O)NC(=O)[C@H](CCC(N)=O)NC(=O)[C@H](CC(C)C)NC(=O)[C@H](CO)NC(=O)[C@H](CC(C)C)NC(=O)[C@H](CCSC)NC(=O)C(C)(C)NC(=O)[C@H](Cc1ccc(O)cc1)NC(=O)[C@@H](NC(=O)[C@H](CC(C)C)NC(=O)C(C)(C)NC(=O)[C@H](CC(C)C)NC(C)=O)[C@@H](C)O)C(C)C)C(C)C)C(N)=O (Ac-L[Aib]LTY[Aib]MLSLQEVVKKLNESY[AEEA]K(Palmitoyl)-NH2) | 0.065 | 59.8 | 9.1 | 7.27 | 0.245 | 5 | 0.683 | Active | 1.17 (≈ 3.5 µg/mL) | > 38.3 | 5.46 (≈ 16.4 µg/mL) | 5.22 | Active | > 200
3 | CCCCCCCCCCCCCCCC(=O)NCCCC[C@H](NC(=O)CCOCCOCCOCCOCCOCCOCCOCCOCCOCCOCCOCCOCCOCCOCCOCCOCCOCCOCCOCCOCCOCCOCCOCCOCCNC(=O)[C@H](Cc1ccc(O)cc1)NC(=O)[C@H](CO)NC(=O)[C@H](CCC(=O)O)NC(=O)[C@H](CC(N)=O)NC(=O)[C@H](CC(C)C)NC(=O)[C@H](CCCCN)NC(=O)[C@H](CCCCN)NC(=O)[C@@H](NC(=O)[C@@H](NC(=O)[C@H](CCC(=O)O)NC(=O)[C@H](CCC(N)=O)NC(=O)[C@H](CC(C)C)NC(=O)[C@H](CO)NC(=O)[C@H](CC(C)C)NC(=O)[C@H](CCSC)NC(=O)C(C)(C)NC(=O)[C@H](Cc1ccc(O)cc1)NC(=O)[C@@H](NC(=O)[C@H](CC(C)C)NC(=O)C(C)(C)NC(=O)[C@H](CC(C)C)NC(C)=O)[C@@H](C)O)C(C)C)C(C)C)C(N)=O (Ac-L[Aib]LTY[Aib]MLSLQEVVKKLNESY[PEG24]K(Palmitoyl)-NH2) |  |  |  |  | > 50 |  |  |  |  |  |  |  |  | 
4 | Ac-LDLTYEMASLQAVVKALNESY-NH2 |  |  |  |  | > 50 |  |  |  |  |  |  |  |  | 
